Measured values published in PubChem BioAssay AID2060494 (Molecular Pharmacology Branch, DTP, NCI, 2025).

System: 435261-313-R-J1-PDC complex spheroid viability
Assay: Anticancer human tumor 435261-313-R-J1-PDC patient-derived colon adenocarcinoma cell line growth inhibition [GQUAD]
Conditions: for IC50: curve of first compound; for viability, T/C: stronger effect = lower value
Procedure, shortened: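 Tumor cells were grown as complex spheroids with HUVEC endothelial cells and mesenchymal stem cells as stroma. G-quadruplex stabilizers were combined with targeted agents over half-log dilutions from near the clinical Cmax, or from 10 microM.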

[1] = second compound 0.0316 µM, first compound 0.0316 µM
[2] = second compound 0.0316 µM, first compound 0.1 µM
[3] = second compound 0.0316 µM, first compound 0.316 µM
[4] = second compound 0.0316 µM, first compound 1 µM
[5] = second compound 0.0316 µM, first compound 3.16 µM
[6] = second compound 0.0316 µM, first compound 10 µM
[7] = second compound 0.1 µM, first compound 0.0316 µM
[8] = second compound 0.1 µM, first compound 0.1 µM
[9] = second compound 0.1 µM, first compound 0.316 µM
[10] = second compound 0.1 µM, first compound 1 µM
[11] = second compound 0.1 µM, first compound 3.16 µM
[12] = second compound 0.1 µM, first compound 10 µM
[13] = second compound 0.316 µM, first compound 0.0316 µM
[14] = second compound 0.316 µM, first compound 0.1 µM
[15] = second compound 0.316 µM, first compound 0.316 µM
[16] = second compound 0.316 µM, first compound 1 µM
[17] = second compound 0.316 µM, first compound 3.16 µM
[18] = second compound 0.316 µM, first compound 10 µM
[19] = second compound 1 µM, first compound 0.0316 µM
[20] = second compound 1 µM, first compound 0.1 µM
[21] = second compound 1 µM, first compound 0.316 µM
[22] = second compound 1 µM, first compound 1 µM
[23] = second compound 1 µM, first compound 3.16 µM
[24] = second compound 1 µM, first compound 10 µM
[25] = second compound 3.16 µM, first compound 0.0316 µM
[26] = second compound 3.16 µM, first compound 0.1 µM
[27] = second compound 3.16 µM, first compound 0.316 µM
[28] = second compound 3.16 µM, first compound 1 µM
[29] = second compound 3.16 µM, first compound 3.16 µM
[30] = second compound 3.16 µM, first compound 10 µM
[31] = second compound 10 µM, first compound 0.0316 µM
[32] = second compound 10 µM, first compound 0.1 µM
[33] = second compound 10 µM, first compound 0.316 µM
[34] = second compound 10 µM, first compound 1 µM
[35] = second compound 10 µM, first compound 3.16 µM
[36] = second compound 10 µM, first compound 10 µM
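Also: spheroids exposed to the agents for seven days before readout.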
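For viability, T/C in this document: percent of vehicle control viability with DMSO wells as 100%.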

COc1cccc2c1C(=O)c1c(O)c3c(c(O)c1C2=O)CC(O)(C(=O)CO)CC3OC1CC(N)C(O)C(C)O1 (centres undefined) + Cc1cnc(CNC(=O)c2c(=O)c3ccc(N4CCCN(C)CC4)nc3n3c2sc2ccccc23)cn1
IC50 (second compound 0.0316 µM): 171 nM | IC50 (second compound 0.1 µM): 137 nM | IC50 (second compound 0.316 µM): < 31.6 nM | IC50 (second compound 1 µM): < 31.6 nM | IC50 (second compound 3.16 µM): < 31.6 nM | IC50 (second compound 10 µM): < 31.6 nM | viability, T/C [1]: 66.9% | viability, T/C [2]: 48.1% | viability, T/C [3]: 46.4% | viability, T/C [4]: 26% | viability, T/C [5]: 1.47% | viability, T/C [6]: 2.7% | viability, T/C [7]: 64.9% | viability, T/C [8]: 53.1% | viability, T/C [9]: 37.9% | viability, T/C [10]: 21.9% | viability, T/C [11]: 1.96% | viability, T/C [12]: 2.36% | viability, T/C [13]: 48.4% | viability, T/C [14]: 50.5% | viability, T/C [15]: 44.8% | viability, T/C [16]: 11.5% | viability, T/C [17]: 0.48% | viability, T/C [18]: 1.34% | viability, T/C [19]: 28.8% | viability, T/C [20]: 35.5% | viability, T/C [21]: 26% | viability, T/C [22]: 0.13% | viability, T/C [23]: 0.11% | viability, T/C [24]: 0.36% | viability, T/C [25]: 15.4% | viability, T/C [26]: 19.2% | viability, T/C [27]: 3.74% | viability, T/C [28]: 0.1% | viability, T/C [29]: 0.13% | viability, T/C [30]: 0.2% | viability, T/C [31]: 0.13% | viability, T/C [32]: 0.19% | viability, T/C [33]: 0.2% | viability, T/C [34]: 0.16% | viability, T/C [35]: 0.19% | viability, T/C [36]: 0.19%

O=c1[nH]cc(F)c(=O)[nH]1 + Cc1cnc(CNC(=O)c2c(=O)c3ccc(N4CCCN(C)CC4)nc3n3c2sc2ccccc23)cn1
IC50 (second compound 0.0316 µM): > 10000 nM | IC50 (second compound 0.1 µM): > 10000 nM | IC50 (second compound 0.316 µM): > 10000 nM | IC50 (second compound 1 µM): < 31.6 nM | IC50 (second compound 3.16 µM): < 31.6 nM | IC50 (second compound 10 µM): < 31.6 nM | viability, T/C [1]: 85.2% | viability, T/C [2]: 68.1% | viability, T/C [3]: 76.1% | viability, T/C [4]: 67.4% | viability, T/C [5]: 81.4% | viability, T/C [6]: 86.7% | viability, T/C [7]: 68.8% | viability, T/C [8]: 64% | viability, T/C [9]: 56.1% | viability, T/C [10]: 65.7% | viability, T/C [11]: 81.9% | viability, T/C [12]: 61.1% | viability, T/C [13]: 57.3% | viability, T/C [14]: 59.5% | viability, T/C [15]: 56.7% | viability, T/C [16]: 56% | viability, T/C [17]: 67% | viability, T/C [18]: 60.6% | viability, T/C [19]: 41.5% | viability, T/C [20]: 45.9% | viability, T/C [21]: 47.6% | viability, T/C [22]: 47% | viability, T/C [23]: 55.1% | viability, T/C [24]: 40.2% | viability, T/C [25]: 20.3% | viability, T/C [26]: 19.4% | viability, T/C [27]: 17.6% | viability, T/C [28]: 24.2% | viability, T/C [29]: 18.9% | viability, T/C [30]: 23.6% | viability, T/C [31]: 0.16% | viability, T/C [32]: 0.18% | viability, T/C [33]: 0.23% | viability, T/C [34]: 0.21% | viability, T/C [35]: 0.23% | viability, T/C [36]: 0.21%
